Where “and” joins values, the source holds several entries; their conditions need not be identical. Equal values may be shown once.
Experiments:
PBMC [1] = experiment: T-cell proliferation assay ([3H]thymidine incorporation, stimulation index); format: cell-based, human
Description: The proliferative responses of PBMCs from different samples can be determined by the standard ^3[H]thymidine incorporation assay as described in published articles (Nehete, 1996; Nehete, 1995). The significance of T-cell proliferative responses to the individual E6 and E7 peptides (in terms of stimulation index [SI]) can be calculated as the fold increase of ^3[H]thymidine incorporation by cells exposed to the peptide over that by the control to which no peptide was added. An SI value of at least 2.0, including at least about 2.1, 2.2, 2.3, 2.4, 2.5, 2.6, 2.7, 2.8, 2.9, 3.0, 3.1, 3.2, 3.3, 3.4, 3.5, 3.6, 3.7, 3.8, 3.9, 4.0 or more, which are considered positive responses. Generally, an SI value is calculated by measuring the amount of radioactivity (cpm) in media from cells incubated with the peptide(s) and dividing by the amount of radioactivity in media from cells not incubated with peptide(s) (media alone).
Heparinized blood was collected from the study participants by venipuncture. PBMCs were isolated by centrifugation on a Ficoll-Hypaque density gradient ([…]; Sigma Chemical Co., St. Louis, Mo.). The proliferative responses of PBMC from different individuals after stimulation with PHA, c-mos peptide, or individual E6 and E7 peptides (Table 4) were determined using the [^3H]thymidine incorporation assay as previously described Nehete et al., 1996). Briefly, each sample was seeded in triplicate in 96-well microtiter plates and incubated for 7 days at 37° C. in a humidified 5% CO2 atmosphere. During the final 16-18 h, 1 μCi of ^3[H]thymidine (6.7 Ci/mmol; ICN Biomedicals, Inc., Costa Mesa, Calif.) was added. The cells were harvested onto filter strips to estimate ^3[H]thymidine incorporation. The specific radioactivity of cells treated with various additions was calculated in each case by subtracting the counts per minute (cpm) values obtained with cells cultured in medium alone. […] The significance of T-cell proliferative responses to the individual E6 and E7 peptides (in terms of stimulation index [SI]) was calculated as the fold increase of [^3H]thymidine incorporation by cells exposed to the peptide over that by the control to which no peptide was added. An SI value ≧3.0, which was considered a positive response, was used for all statistical analyses to determine the significance of proliferative responses and the association with disease-free or disease-recurrence status.

PBMC [2] = experiment: Cytokine analysis of PBMC culture supernatants (Cytoscreen immunoassay kits); format: cell-based, human; details: 48 h; for IL-4 production, number of patients positive/number tested: positive = above kit sensitivity 2.0 pg/ml; for IL-10 production, number of patients positive/number tested: positive = above kit sensitivity 5.0 pg/ml; for EL-12 production, number of patients positive/number tested: positive = above kit sensitivity IL-12 = 1.0 pg/ml; for IFN-γ production, number of patients positive/number tested: positive = above kit sensitivity 4.0 pg/ml; for EL-2 production, number of patients positive/number tested: positive = above kit sensitivity IL-2 = 8.7 pg/ml
Description: Cryopreserved PBMC were used for these assays. The PBMC (1×10^5) were incubated with various HPV peptides in RPMI-1640 medium (containing 10% fetal calf serum) in triplicate wells of 96-well round-bottom plates for 48 h at 37° C. Supernatants (100 μl) were removed from each well after centrifugation and stored frozen at −70° C. in another 96-well plate. The plates were then thawed and the supernatants assayed for various cytokines (IFN-γ, IL-2, IL-4, IL-10, and IL-12) using the Cytoscreen immunoassay kits (Biosource International, Camarillo, Calif.) according to the manufacturer's instructions.

| Sequence | level of proliferative responses compared with the other peptides (PBMC [1]) | Proliferative Response No (SI < 3.0) to specific peptide, number (%) of women (PBMC [1]; Group 3 (disease-free), n = 22) | Proliferative Response No (SI < 3.0) to specific peptide, number (%) of women (PBMC [1]; Group 4 (recurrence), n = 10) | IL-4 production, number of patients positive/number tested (PBMC [2]; Group 3 (n = 8)) | IL-10 production, number of patients positive/number tested (PBMC [2]; Group 3 (n = 8)) | EL-12 production, number of patients positive/number tested (PBMC [2]; Group 3 (n = 8)) | IL-4 production, number of patients positive/number tested (PBMC [2]; Group 4 (n = 6)) | IFN-γ production, number of patients positive/number tested (PBMC [2]; Group 4 (n = 6)) | IL-10 production, number of patients positive/number tested (PBMC [2]; Group 4 (n = 6)) | EL-2 production, number of patients positive/number tested (PBMC [2]; Group 4 (n = 6)) | EL-12 production, number of patients positive/number tested (PBMC [2]; Group 4 (n = 6)) | stimulation index (SI), proliferative response (PBMC [1]; women in the four study groups) |
| --- | --- | --- | --- | --- | --- | --- | --- | --- | --- | --- | --- | --- |
| QAEPDRAHYNIVTFCCKCD (listed as Human papillomavirus) [Q19D, E7 peptide from HPV-16, aa 44-62] | higher levels of proliferative responses | 9 (41%) | 10 (100%) | none and 0/8 | 3 and 3/8 | 6 of 8 and 6/8 | 1 of the 6 and 1/6 | 0/6 | 6 of 6 and 6/6 | 0/6 | 1/6 | – |
| QLLRREVYDFAFRDL (listed as Human papillomavirus) [Q15L, E6 peptide from HPV-16, aa 43-57] | higher levels of proliferative responses | 11 (50%) | 10 (100%) | none and 0/8 | 3 and 3/8 | 3 of 8 and 3/8 | 1 of the 6 and 1/6 | 0/6 | 5 of 6 and 5/6 | 0/6 | 0/6 | – |
| RAHYNIVTF (listed as Human papillomavirus) [R9F, E7 peptide from HPV-16, aa 49-57] | higher levels of proliferative responses | 12 (54%) | – | – | – | – | – | – | – | – | – | – |
| STRTPEDSNSLGT (Murine) [c-mos peptide, peptide from the c-mos protooncogene, aa 158-170, used as a negative control, reference compound] | – | – | – | – | – | – | – | – | – | – | – | < 2.0 |
| VYDFAFRDLC (listed as Human papillomavirus) [V10C, E6 peptide from HPV-16, aa 49-58] | higher levels of proliferative responses | 11 (50%) | 10 (100%) | – | – | – | – | – | – | – | – | – |

From patent US7659071B2, “Methods and compositions relating to HPV-associated pre-cancerous and cancerous growths, including CIN” (Board of Regents, the University of Texas System, priority 2001, dated 2010)
